# Measurements taken from patent US12110305B2, “Prodrugs of phosphonamide nucleotide analogues and their pharmaceutical use” (priority 2020, dated 2024).
# Read-outs that look alike come from different tables or passages of the source.
# Key:
# [1] = tested on: HIV-1 (IIIB); experiment: Antiviral (HIV) assay in MT-4 cells; type: cell-based; details: HIV-1 IIIB in MT-4 cells, 5 days incubation, Cell Titer Glo, average of at least two independent experiments
# Procedure, shortened: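 MT-4 cells, infected with HIV-1 IIIB (1:250 dilution of concentrated stock) or mock-infected, were exposed to 1:3 serially diluted compounds in RPMI with 10% FBS. After 5 days at 37° C., CellTiter-Glo luminescence was read. EC50 = concentration causing […], from sigmoidal dose-response fits.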
# [2] = physchem; type: physicochemical; details: phosphate buffered saline, 26 °C, aqueous buffer, kinetic from dmso stock, pH 7.4 PBS, 1.0% DMSO, 24-hour incubation at ambient temperature
# Method: Example 108: Kinetic Solubility Analysis
# Buffer Preparation: 0.1 N HCl: Hydrochloric acid, 0.1 N standardized solution (MP Biomedicals part number 199569). 1×PBS, pH 7.4: Phosphate Buffered Saline (PBS) solution 10× (Fisher Bioreagent part number BP399-500) 50 mL was added to approximately 450 mL HPLC grade H2O. The volume of the solution was then adjusted to 500 mL for a total dilution factor of 1:10 and a final PBS concentration of 1×.
# The final DMSO concentration was 1.0% (v/v) and maximum theoretical compound concentration is 100 μM (for compound stock concentration of 10 mM). The filter plate was sealed. Following 24-hour incubation at ambient temperature (24.2-27.5° C.), the samples were vacuum filtered and the filtrates were collected in a 96 well polypropylene plate for analysis. The collection plate was sealed for analysis. Filtrates were injected into the Antek 8060 chemiluminescent nitrogen detector for quantification. The results are reported in μM.
# The filtrates were quantified with respect to this calibration curve. Each calculated solubility value was corrected for background nitrogen present in the DMSO and in the medium used to prepare the sample. All reported values for compounds containing adjacent nitrogen atoms in a ring structure were increased by approximately 25%.
# [3] = tested on: PBMCs; experiment: TFV-DP formation in peripheral blood mononuclear cells (PBMCs); type: in vitro ADME, human; details: activated PBMCs, 1 μM compound, 50% serum, 2 hrs at 37° C.; intracellular volume 0.2 pL/cell; average of at least two independent experiments
# Method: Example 109: TFV-DP Formation in Peripheral Blood Mononuclear Cells (PBMCs)
# Compounds were tested in a 96-well assay format for the level of TFV-DP loading in PBMCs in the presence of human serum. PBMCs were activated with 100 units/mL recombinant human […] and 2 μg/mL phytohaemagglutinin (PHA) for 36 hrs. After activation, PBMCs (2 million) were incubated with compounds (1 μM) and cell culture media with 50% serum in a 96 well plate for 2 hrs at 37° C. Cells were transferred to a 96 well deep block plate and spun down. Liquid was removed, and cells were washed 2× with 1 mL of 0.9% saline with spin downs between washes. After a final wash and liquid removal, 500 μL of MeOH+200 nM Cl-ATP+200 nM [adenine-^13C5]-tenofovir diphosphate (tetra ammonium salt) was added and thoroughly mixed with the cells. The plate was then spun down and 450 μL of sample was transferred to a new 96 well plate. Supernatants were then evaporated, reconstituted in 80 μl of 1 mM ammonium phosphate and thoroughly vortexed. Blank samples were pooled for serial dilution to construct calibration standards for TFV, TFV-DP and TFV-TP in pmol/million cells. Samples were then transferred to a short-well 96 well plate, centrifuged and injected on an LC-MS/MS for quantification. Values were reported in μM units using an intracellular volume of 0.2 pL/cell.
# [4] = tested on: PHHs; experiment: TFV-DP formation in primary human hepatocytes (PHHs); type: in vitro ADME; details: 1 μM compound, 1 hour at 37° C., intracellular volume 3 pL/cell, average of at least two independent experiments
# Method: Example 110: TFV-DP Formation in Primary Human Hepatocytes (PHHs)
# Compounds were tested in a 24-well assay format for the level of TFV-DP formation in PHHs. Cells were seeded (4.0×10^5 cells/well) in collagen coated plates and incubated at 37° C. After 4-6 hours the liquid was removed, 500 μl of new media (2% FBS, 1.5% DMSO) was added, and the cells were incubated at 37° C. overnight. The media is then replaced (2% FBS, 1.0% DMSO), compounds (1 μM) were added and the cells were incubated at 37° C. in the presence of compounds for 1 hour. Media was then removed and cells were washed 2× with 500 μl of 0.9% saline. After a final wash and liquid removal, 500 μL of MeOH+200 nM Cl-ATP+200 nM [adenine-^13C5]-tenofovir diphosphate (tetra ammonium salt) was added and cells were incubated at −80° C. for 30 minutes. The cells were kept on water ice while the MeOH/standard supernatant is pipetted up and down several times and then transferred to a 96 deep-well plate. Supernatants were then evaporated, samples were reconstituted in 80 μl of 1 mM ammonium phosphate and then thoroughly vortexed. Blank samples were pooled for serial dilution to construct calibration standards for TFV, TFV-DP and TFV-TP in pmol/million cells. Samples are then transferred to a short-well 96 well plate, centrifuged and injected on an LC-MS/MS for quantification. […]
# [5] = tested on: MT-4 cells; experiment: Cytotoxicity assay in MT-4 cells; type: cell-based, human; details: uninfected MT-4 cells, 5 days; average of at least two independent experiments; read-out: MT4 CC50
# Method: Compounds were tested in a high-throughput 384-well assay format for their ability to inhibit the replication of HIV-1 (IIIB) in MT-4 cells. Compounds were serially diluted (1:3) in DMSO on 384-well polypropylene plates and further diluted 200-fold into complete RPMI media (10% FBS, 1% P/S) using the Biotek Micro Flow and Labcyte ECHO acoustic dispenser. Each plate contained up to 8 test compounds, with negative (no drug) and positive (5 μM AZT) controls. MT-4 cells were pre-treated with 10 μL of either RPMI (mock-infected) or a fresh 1:250 dilution of HIV-1 IIIB concentrated virus stock. Infected and uninfected MT-4 cells were further diluted in complete RPMI media and added to each plate using a Micro Flow dispenser. After 5 days incubation in a humidified and temperature-controlled incubator (37° C.), Cell Titer Glo (Promega) was added to the assay plates and chemiluminescence read using an Envision plate-reader. EC50 values were defined as the compound concentration that causes a 50% decrease in luminescence signal and were calculated using a sigmoidal dose-response model to generate curve fits and are shown in Table 1.
# Example 105: Cytotoxicity Assay in MT-4 Cells
# Assays were performed as described in Example 104 except uninfected MT-4 cells were added to each well containing test compound. In addition, 10 μM puromycin was added to the last column of each assay plate to assess a base level of cytotoxicity.
# [6] = Human immunodeficiency virus 1, MT4, 120 h
SMILES,"EC50 [1, 6]",solubility kinetic at 24 h [2],Average PBMC TFV-DP (μM) [3],EC50 ([1]; read-out: MT4 HIV EC50),Average PBMC TFV-DP [3],Average PHH TFV-DP [4],CC50 [5]
"CCCCCCOC(=O)C(C)(C)NP(=O)(CO[C@H](C)Cn1cnc2c(NC(=O)CCCSC(C)=O)ncnc21)NC(C)(C)C(=O)OCCCCCC [Example 97, Dihexyl 2,2′-(((((1-(6-(4-(acetylthio)butanamido)-9H-purin-9-yl)propan-2-yl)oxy)methyl)phosphoryl)bis(azanediyl))(R)-bis(2-methylpropanoate)]",,,,13 nM,1.4 µM,1.60 µM,10700 nM
"CCCCCCOC(=O)C(C)(C)NP(=O)(CO[C@H](C)Cn1cnc2c(NC(=O)CC(C)(C)c3c(C)cc(C)cc3OC(C)=O)ncnc21)NC(C)(C)C(=O)OCCCCCC [Example 100, Dihexyl 2,2′-(((((1-(6-(3-(2-acetoxy-4,6-dimethylphenyl)-3-methylbutanamido)-9H-purin-9-yl)propan-2-yl)oxy)methyl)phosphoryl)bis(azanediyl))(R)-bis(2-methylpropanoate)]",,,,22 nM,1.9 µM,4.73 µM,
"C[C@H](Cn1cnc2c(N)ncnc21)OCP(=O)(NC(C)(C)C(=O)OCCc1ccccc1)NC(C)(C)C(=O)OCCc1ccccc1 [Example 103, Diphenethyl 2,2′-(((((1-(6-amino-9H-purin-9-yl)propan-2-yl)oxy)methyl)phosphoryl)bis(azanediyl))(R)-bis(2-methylpropanoate)]",,,,> 500 nM,0.4 µM,,> 42500 nM
"C[C@H](Cn1cnc2c(N)ncnc21)OCP(=O)(NC(C)(C)C(=O)OCC1CCC(C)(C)CC1)NC(C)(C)C(=O)OCC1CCC(C)(C)CC1 [Example 13, Bis((4,4-dimethylcyclohexyl)methyl) 2,2′-(((((1-(6-amino-9H-purin-9-yl)propan-2-yl)oxy)methyl)phosphoryl)bis(azanediyl))(R)-bis(2-methylpropanoate)]",,,,16 nM,2.6 µM,,5470 nM

# Second part, led by results:
"EC50 [1, 6]",solubility kinetic at 24 h [2],Average PBMC TFV-DP (μM) [3],SMILES,EC50 ([1]; read-out: MT4 HIV EC50),Average PBMC TFV-DP [3],Average PHH TFV-DP [4],CC50 [5]
8 nM,38 µg/mL,,"CC(C)CCCOC(=O)C(C)(C)NP(=O)(CO[C@H](C)Cn1cnc2c(N)ncnc21)NC(C)(C)C(=O)OCCCC(C)C [Example 67, Bis(4-methylpentyl) 2,2′-(((((1-(6-amino-9H-purin-9-yl)propan-2-yl)oxy)methyl)phosphoryl)bis(azanediyl))(R)-bis(2-methylpropanoate)]",,,,
172 nM,,BLQ,"C[C@H](Cn1cnc2c(N)ncnc21)OCP(=O)(NC(C)(C)C(=O)O[C@H]1CC[C@H](C(C)(C)C)CC1)NC(C)(C)C(=O)O[C@H]1CC[C@H](C(C)(C)C)CC1 [Example 12, Bis(trans-4-(tert-butyl)cyclohexyl) 2,2′-((((((R)-1-(6-amino-9H-purin-9-yl)propan-2-yl)oxy)methyl)phosphoryl)bis(azanediyl))bis(2-methylpropanoate)]",,,,
> 500 nM,,BLQ,"CCCCCCOC(=O)C(C)(C)NP(=O)(CO[C@H](C)Cn1cnc2c(NC(=O)CC(C)(C)CC(=O)OCc3oc(=O)oc3C)ncnc21)NC(C)(C)C(=O)OCCCCCC [Example 102, Dihexyl 2,2′-(((((1-(6-(3,3-dimethyl-5-((5-methyl-2-oxo-1,3-dioxol-4-yl)methoxy)-5-oxopentanamido)-9H-purin-9-yl)propan-2-yl)oxy)methyl)phosphoryl)bis(azanediyl))(R)-bis(2-methylpropanoate)]",,,,
> 500 nM,,BLQ,"C[C@H](Cn1cnc2c(N)ncnc21)OCP(=O)(NC(C)(C)C(=O)OC1CCOCC1)NC(C)(C)C(=O)OC1CCOCC1 [Example 24, Bis(tetrahydro-2H-pyran-4-yl) 2,2′-(((((1-(6-amino-9H-purin-9-yl)propan-2-yl)oxy)methyl)phosphoryl)bis(azanediyl))(R)-bis(2-methylpropanoate)]",,,,
